Assay results from BindingDB's records for doi:10.1016/j.ejmech.2016.03.070 (China Medical University, 2016).

Tests used:
[1] = Inhibition of ABCB1 in human KBVIN cells assessed as potentiation of paclitaxel-induced cytotoxicity by measuring paclitaxel IC50 at 8 uM after 72 hrs by SRB assay (Rvb = 1196.09 +/- 44.8 nM)
[2] = Inhibition of ABCB1 in human KBVIN cells assessed as potentiation of paclitaxel-induced cytotoxicity by measuring paclitaxel IC50 at 10 uM after 72 hrs by SRB assay (Rvb = 1196.09 +/- 44.8 nM)
[3] = Inhibition of ABCB1 in human KBVIN cells assessed as potentiation of vincristine-induced cytotoxicity by measuring vincristine IC50 at 8 uM after 72 hrs by SRB assay (Rvb = 2867.34 +/- 142.36 nM)
[4] = Inhibition of ABCB1 in human KBVIN cells assessed as potentiation of vincristine-induced cytotoxicity by measuring vincristine IC50 at 10 uM after 72 hrs by SRB assay (Rvb = 2867.34 +/- 142.36 nM)
[5] = Inhibition of full length human ABCB1 expressed in Flp-In-293 cells assessed as potentiation of paclitaxel-induced cytotoxicity by measuring paclitaxel IC50 at 8 uM after 72 hrs by SRB assay (Rvb = 644.78 +/- 2.6 nM)
[6] = Inhibition of full length human ABCB1 expressed in Flp-In-293 cells assessed as potentiation of paclitaxel-induced cytotoxicity by measuring paclitaxel IC50 at 10 uM after 72 hrs by SRB assay (Rvb = 644.78 +/- 2.6 nM)
[7] = Inhibition of full length human ABCB1 expressed in Flp-In-293 cells assessed as potentiation of doxorubicin-induced cytotoxicity by measuring doxorubicin IC50 at 8 uM after 72 hrs by SRB assay (Rvb = 914.83 +/- 15.85 nM)
[8] = Inhibition of full length human ABCB1 expressed in Flp-In-293 cells assessed as potentiation of vincristine-induced cytotoxicity by measuring vincristine IC50 at 8 uM after 72 hrs by SRB assay (Rvb = 823.13 +/- 15.79 nM)
[9] = Inhibition of full length human ABCB1 expressed in Flp-In-293 cells assessed as potentiation of doxorubicin-induced cytotoxicity by measuring doxorubicin IC50 at 10 uM after 72 hrs by SRB assay (Rvb = 914.83 +/- 15.85 nM)
[10] = Inhibition of full length human ABCB1 expressed in Flp-In-293 cells assessed as potentiation of vincristine-induced cytotoxicity by measuring vincristine IC50 at 10 uM after 72 hrs by SRB assay (Rvb = 823.13 +/- 15.79 nM)

SMILES	IC50 [1]	IC50 [2]	IC50 [3]	IC50 [4]	IC50 [5]	IC50 [6]	IC50 [7]	IC50 [8]	IC50 [9]	IC50 [10]
Cc1cccc(-c2coc3c(c(O)cc4occ(-c5cccc(C)c5)c(=O)c43)c2=O)c1	63 nM	52 nM	390 nM	96 nM	60 nM	40 nM	664 nM	53 nM	586 nM	39 nM
COc1ccc(-c2coc3c(c(O)cc4occ(-c5ccc(OC)cc5)c(=O)c43)c2=O)cc1	–	–	–	–	303 nM	79 nM	576 nM	577 nM	544 nM	500 nM
COc1ccc(-c2coc3c(c(O)cc4occ(-c5ccc(OC)c(OC)c5)c(=O)c43)c2=O)cc1OC	–	–	–	–	73 nM	68 nM	597 nM	203 nM	594 nM	85 nM
